Reference: patent publication US8410170B2, “Use of isothiocyanates compounds in treating prostatic diseases and skin cancer” (Wuxi JC Pharmaceutical Technology Co., Ltd., priority 2005, dated 2013)

Assays:
[1] = system: non-bacterial prostatitis; test: Therapeutic effects on non-bacterial prostatitis (Xiaozhiling injection into prostate); assay type: in vivo, SD rats; conditions: for urine, 1 h Period / urine, 2 h Period / urine, 3 h Period: last dosing day
Protocol: Fifty-five male SD rats were randomly divided into 6 groups, 9 each, except the negative control group for which 10 animals were used. All animals from group 1 to 6 were anesthetized by injection of ketamine under sterile conditions and incised around 1.5 cm with a sterilized surgery scalpel at middle of abdomen. Animals in Group 1 were injected penicillin to prevent infection, and given distill water, 10 ml/kg, once a day, 5 times a week for 5 weeks. Groups from 2 to 6 injected 25% Xiaozhiling into left and right lobes of prostate, 0.1 ml for each lobe and sew the muscle and skin with #1 silk thread. The animals were then given penicillin to prevent infectious. Group 2 was served as negative control group in which animals were treated with distill water by gavage 24 hrs after the Xiaozhiling injection, once a day, 5 times a week for 5 weeks. Group 3 was served as positive control group in which animals were treated with GENURIN by gavage 24 hrs after the Xiaozhiling injection at dose of 60 mg/kg, once a day, 5 times a week (escaping weekend) for 5 weeks. […] On the last dosing day, urine samples from different groups that covered periods of 1, 2 and 3 hrs were collected.
Twenty-four hrs after the last dose, the animals were euthanized and weighed. Volume and weight of prostate were measured. The averages of the prostate weight/volume and organ coefficient (average weight of prostate/average of body weight) were calculated, and statistical analysis performed (t test).
Prostate tissues of animals from different groups were embedded with paraffin. The tissue sections were stained with H&E for histpathological examination by an anatomical pathologist.

B16 mouse melanoma cells = test: MTT cell growth inhibition, B16 melanoma; assay type: cell-based
Protocol: B16 mouse melanoma cells at exponential growth phase were digested by 0.25% trypsin, adjusted to the density of 3˜5×10^4/mL by adding the above working RPMI 1640 medium, sed into 96-well dishes at 150 μl per well, under normal culture conditions mentioned above. […] Equal volume of the working RPMI 1640 medium was added into the wells of the control group. Each group had four wells. After incubation, discarded the supernatant, added 150 μl D-Hanks per well, washed, discarded the supernatant. After adding 100 μl MTT (0.5 mg/mL), incubated for another 4 hrs. Discarded the supernatant, added 150 μl DMSO, kept at 37° C. for 10 mins. Absorbance was measured at wavelength of 570 nm.

Compound: S=C=NCCc1ccccc1 [PEITC, phenethyl isothiocyanate]
- Fibrous Exudation: no. of animals with score ++ ([1]; PEITC 2 mg/kg, 9 animals): 0
- Fibrous Exudation: no. of animals with score +++ ([1]; PEITC 2 mg/kg, 9 animals): 0
- Histopathological score of prostatitis, Overall Average X ± SD ([1]; PEITC 2 mg/kg, 9 animals): 2.16 ± 1.52
- Hyperblastosis: no. of animals with score 0 ([1]; PEITC 2 mg/kg, 9 animals): 7
- Hyperblastosis: no. of animals with score + ([1]; PEITC 2 mg/kg, 9 animals): 2
- Hyperblastosis: no. of animals with score ++ ([1]; PEITC 2 mg/kg, 9 animals): 0
- Hyperblastosis: no. of animals with score +++ ([1]; PEITC 2 mg/kg, 9 animals): 0
- Inflammatory Infiltration: no. of animals with score 0 ([1]; PEITC 2 mg/kg, 9 animals): 6
- Inflammatory Infiltration: no. of animals with score + ([1]; PEITC 2 mg/kg, 9 animals): 3
- Inflammatory Infiltration: no. of animals with score ++ ([1]; PEITC 2 mg/kg, 9 animals): 0
- Inflammatory Infiltration: no. of animals with score +++ ([1]; PEITC 2 mg/kg, 9 animals): 0
- urine, 1 h Period ([1]; PEITC 2 mg/kg): 6.6 ± 2.1 mL
- urine, 2 h Period ([1]; PEITC 2 mg/kg): 8.7 ± 1.7 mL
- urine, 3 h Period ([1]; PEITC 2 mg/kg): 9.2 ± 2.7 mL
- Average of Body Weight ([1]; PEITC 4 mg/kg gavage (Example 13-11), 5 weeks): 370 ± 24.8 g
- Average Volume of Prostate ([1]; PEITC 4 mg/kg gavage, 5 weeks): 0.78 ± 0.10 cm^3
- Average Weight of Prostate ([1]; PEITC 4 mg/kg gavage, 5 weeks): 0.72 ± 0.16 g
- Inhibition of Organ-coefficient ([1]; PEITC 4 mg/kg gavage, 5 weeks): 26.15%
- Organ Coefficient ([1]; PEITC 4 mg/kg gavage, 5 weeks): 0.192 ± 0.03 %
- Bleeding: no. of animals with score 0 ([1]; PEITC 4 mg/kg, 9 animals): 6
- Bleeding: no. of animals with score + ([1]; PEITC 4 mg/kg, 9 animals): 3
- Bleeding: no. of animals with score ++ ([1]; PEITC 4 mg/kg, 9 animals): 0
- Bleeding: no. of animals with score +++ ([1]; PEITC 4 mg/kg, 9 animals): 0
- Chronic Inflammatory Infiltration: no. of animals with score 0 ([1]; PEITC 4 mg/kg, 9 animals): 9
- Chronic Inflammatory Infiltration: no. of animals with score + ([1]; PEITC 4 mg/kg, 9 animals): 0
- Chronic Inflammatory Infiltration: no. of animals with score ++ ([1]; PEITC 4 mg/kg, 9 animals): 0
- Chronic Inflammatory Infiltration: no. of animals with score +++ ([1]; PEITC 4 mg/kg, 9 animals): 0
- Congestion: no. of animals with score 0 ([1]; PEITC 4 mg/kg, 9 animals): 7
- Congestion: no. of animals with score + ([1]; PEITC 4 mg/kg, 9 animals): 2
- Congestion: no. of animals with score ++ ([1]; PEITC 4 mg/kg, 9 animals): 0
- Congestion: no. of animals with score +++ ([1]; PEITC 4 mg/kg, 9 animals): 0
- Edema: no. of animals with score 0 ([1]; PEITC 4 mg/kg, 9 animals): 5
- Edema: no. of animals with score + ([1]; PEITC 4 mg/kg, 9 animals): 4
- Edema: no. of animals with score ++ ([1]; PEITC 4 mg/kg, 9 animals): 0
- Edema: no. of animals with score +++ ([1]; PEITC 4 mg/kg, 9 animals): 0
- Fibrous Exudation: no. of animals with score 0 ([1]; PEITC 4 mg/kg, 9 animals): 4
- Fibrous Exudation: no. of animals with score + ([1]; PEITC 4 mg/kg, 9 animals): 4
- Fibrous Exudation: no. of animals with score ++ ([1]; PEITC 4 mg/kg, 9 animals): 1
- Fibrous Exudation: no. of animals with score +++ ([1]; PEITC 4 mg/kg, 9 animals): 0
- Histopathological score of prostatitis, Overall Average X ± SD ([1]; PEITC 4 mg/kg, 9 animals): 1.72 ± 0.79
- Hyperblastosis: no. of animals with score 0 ([1]; PEITC 4 mg/kg, 9 animals): 9
- Hyperblastosis: no. of animals with score + ([1]; PEITC 4 mg/kg, 9 animals): 0
- Hyperblastosis: no. of animals with score ++ ([1]; PEITC 4 mg/kg, 9 animals): 0
- Hyperblastosis: no. of animals with score +++ ([1]; PEITC 4 mg/kg, 9 animals): 0
- Inflammatory Infiltration: no. of animals with score 0 ([1]; PEITC 4 mg/kg, 9 animals): 7
- Inflammatory Infiltration: no. of animals with score + ([1]; PEITC 4 mg/kg, 9 animals): 2
- Inflammatory Infiltration: no. of animals with score ++ ([1]; PEITC 4 mg/kg, 9 animals): 0
- Inflammatory Infiltration: no. of animals with score +++ ([1]; PEITC 4 mg/kg, 9 animals): 0
- histopathological scores versus untreated prostatitis animals (slide) ([1]; PEITC 4 mg/kg, FIG. 7.3): less severe
- urine, 1 h Period ([1]; PEITC 4 mg/kg): 5.7 ± 2.2 mL
- urine, 2 h Period ([1]; PEITC 4 mg/kg): 9.4 ± 1.5 mL
- urine, 3 h Period ([1]; PEITC 4 mg/kg): 10.4 ± 1.9 mL
- IC50 (B16 mouse melanoma cells; B16 mouse melanoma cell line): 10 to 20 µM
- inhibition at 2.5 µM (B16 mouse melanoma cells; Mus musculus, B16, 48 h, 2.5 μmol/L, 48 h, B16): 14.5%
- inhibition at 5 µM (B16 mouse melanoma cells; Mus musculus, B16, 48 h, 5.0 μmol/L, 48 h, B16): 27.9%
- inhibition at 7.5 µM (B16 mouse melanoma cells; Mus musculus, B16, 48 h, 7.5 μmol/L, 48 h, B16): 36.7%
- inhibition at 10 µM (B16 mouse melanoma cells; Mus musculus, B16, 48 h, 10.0 μmol/L, 48 h, B16): 49.2%
- inhibition at 12.5 µM (B16 mouse melanoma cells; Mus musculus, B16, 48 h, 12.5 μmol/L, 48 h, B16): 58.4%
- inhibition at 15 µM (B16 mouse melanoma cells; Mus musculus, B16, 48 h, 15.0 μmol/L, 48 h, B16): 63.7%
- inhibition at 20 µM (B16 mouse melanoma cells; Mus musculus, B16, 48 h, 20.0 μmol/L, 48 h, B16): 77.3%
- inhibition at 30 µM (B16 mouse melanoma cells; Mus musculus, B16, 48 h, 30.0 μmol/L, 48 h, B16): 89.6%
- inhibition at 40 µM (B16 mouse melanoma cells; Mus musculus, B16, 48 h, 40.0 μmol/L, 48 h, B16): > 96%
